{
  "source": "ChEMBL document CHEMBL1201862",
  "about": "“PubChem BioAssay data set” (2004)",
  "format_in_all_cases": "functional",
  "key": {"[1]": {"target": "T1, Alkaline phosphatase, tissue-nonspecific isozyme (Homo sapiens, UniProt P05186)", "T1 sequence (P05186 whole entry)": "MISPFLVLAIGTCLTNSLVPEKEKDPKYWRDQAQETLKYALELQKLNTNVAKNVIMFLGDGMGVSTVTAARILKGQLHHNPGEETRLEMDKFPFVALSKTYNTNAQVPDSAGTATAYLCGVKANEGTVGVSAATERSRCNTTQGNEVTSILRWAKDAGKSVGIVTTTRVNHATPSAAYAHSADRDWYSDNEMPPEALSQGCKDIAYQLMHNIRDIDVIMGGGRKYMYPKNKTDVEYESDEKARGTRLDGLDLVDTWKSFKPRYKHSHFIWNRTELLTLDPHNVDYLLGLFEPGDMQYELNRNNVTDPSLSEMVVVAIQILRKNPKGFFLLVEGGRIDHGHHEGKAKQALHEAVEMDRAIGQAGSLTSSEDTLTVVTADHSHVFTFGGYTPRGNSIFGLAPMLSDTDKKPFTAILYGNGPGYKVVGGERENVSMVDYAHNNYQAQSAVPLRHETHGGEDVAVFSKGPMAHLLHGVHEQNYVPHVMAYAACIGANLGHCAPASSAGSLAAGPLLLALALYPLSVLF", "assay": "activation of tissue-nonspecific alkaline phosphatase – biochemical, TNAP isozyme, mouse IAP uHTS hits, selectivity assay for mouse IAP activator project, dose response (AID 488880)"}, "[2]": {"target": "T2, Replicative DNA helicase DnaB (Mycobacterium tuberculosis, UniProt P9WMR3)", "T2 sequence (P9WMR3 whole entry)": "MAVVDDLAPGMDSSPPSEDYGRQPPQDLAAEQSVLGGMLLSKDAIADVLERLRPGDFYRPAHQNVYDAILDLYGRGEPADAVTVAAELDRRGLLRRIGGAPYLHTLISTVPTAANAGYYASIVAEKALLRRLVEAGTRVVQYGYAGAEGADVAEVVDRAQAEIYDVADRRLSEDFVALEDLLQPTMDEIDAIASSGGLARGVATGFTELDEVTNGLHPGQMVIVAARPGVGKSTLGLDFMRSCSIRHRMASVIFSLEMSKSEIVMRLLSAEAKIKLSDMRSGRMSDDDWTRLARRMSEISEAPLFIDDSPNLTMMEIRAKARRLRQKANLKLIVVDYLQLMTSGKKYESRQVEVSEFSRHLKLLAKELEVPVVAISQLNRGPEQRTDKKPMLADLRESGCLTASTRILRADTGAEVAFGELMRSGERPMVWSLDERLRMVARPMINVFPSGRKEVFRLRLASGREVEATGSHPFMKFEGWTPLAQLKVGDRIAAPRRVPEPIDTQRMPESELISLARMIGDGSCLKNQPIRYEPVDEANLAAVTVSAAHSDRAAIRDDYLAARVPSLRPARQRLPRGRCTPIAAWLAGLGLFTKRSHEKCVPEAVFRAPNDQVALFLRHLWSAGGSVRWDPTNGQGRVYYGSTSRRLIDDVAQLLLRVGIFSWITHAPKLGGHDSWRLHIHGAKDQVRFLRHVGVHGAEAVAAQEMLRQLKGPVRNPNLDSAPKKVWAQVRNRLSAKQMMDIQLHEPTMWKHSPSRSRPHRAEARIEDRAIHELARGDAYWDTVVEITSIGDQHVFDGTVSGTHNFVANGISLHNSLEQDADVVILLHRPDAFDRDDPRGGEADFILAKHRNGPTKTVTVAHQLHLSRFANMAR", "assay": "DnaB intein splicing inhibitors, dose response, biochemical, cell-free fluorescence (AID 449749)"}, "[3]": {"target": "T3, Sentrin-specific protease 8 (Homo sapiens, UniProt Q96LD8)", "T3 sequence (Q96LD8 whole entry)": "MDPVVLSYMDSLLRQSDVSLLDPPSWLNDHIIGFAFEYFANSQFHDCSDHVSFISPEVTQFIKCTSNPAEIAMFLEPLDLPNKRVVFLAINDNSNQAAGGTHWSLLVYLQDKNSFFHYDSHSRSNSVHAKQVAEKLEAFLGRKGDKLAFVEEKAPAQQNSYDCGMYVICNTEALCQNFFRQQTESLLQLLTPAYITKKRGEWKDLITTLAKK"}, "[4]": {"target": "Dual specificity protein kinase CLK2 (Homo sapiens, UniProt P49760)", "sequence (P49760 whole entry)": "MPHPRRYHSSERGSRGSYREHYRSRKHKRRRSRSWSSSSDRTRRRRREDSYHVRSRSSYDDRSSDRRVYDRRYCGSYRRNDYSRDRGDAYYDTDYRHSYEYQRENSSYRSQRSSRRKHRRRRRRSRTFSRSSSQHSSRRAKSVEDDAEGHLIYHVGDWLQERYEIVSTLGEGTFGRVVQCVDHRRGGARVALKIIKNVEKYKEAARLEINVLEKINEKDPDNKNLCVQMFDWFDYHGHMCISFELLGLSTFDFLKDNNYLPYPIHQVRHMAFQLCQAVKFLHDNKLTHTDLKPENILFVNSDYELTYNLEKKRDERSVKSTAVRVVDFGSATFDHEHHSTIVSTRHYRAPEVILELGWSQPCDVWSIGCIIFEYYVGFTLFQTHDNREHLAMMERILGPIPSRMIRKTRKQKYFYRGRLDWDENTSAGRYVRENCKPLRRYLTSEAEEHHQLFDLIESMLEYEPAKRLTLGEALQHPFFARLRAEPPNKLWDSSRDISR"}, "[5]": {"target": "Death-associated protein kinase 3 (Homo sapiens, UniProt O43293)", "sequence (O43293 whole entry)": "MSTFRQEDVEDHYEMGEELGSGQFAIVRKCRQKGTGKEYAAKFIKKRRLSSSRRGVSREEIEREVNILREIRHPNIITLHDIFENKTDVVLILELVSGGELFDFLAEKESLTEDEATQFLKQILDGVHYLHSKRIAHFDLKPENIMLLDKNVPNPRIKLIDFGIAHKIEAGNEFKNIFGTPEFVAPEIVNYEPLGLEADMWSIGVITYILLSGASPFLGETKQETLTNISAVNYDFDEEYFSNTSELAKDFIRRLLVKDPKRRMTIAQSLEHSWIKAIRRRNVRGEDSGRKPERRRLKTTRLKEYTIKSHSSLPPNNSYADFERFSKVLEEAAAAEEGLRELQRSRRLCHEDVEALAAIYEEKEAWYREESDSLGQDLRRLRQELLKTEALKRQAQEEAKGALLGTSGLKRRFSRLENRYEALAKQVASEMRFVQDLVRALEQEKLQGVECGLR"}, "[6]": {"target": "High affinity nerve growth factor receptor (Homo sapiens, UniProt P04629)"}, "[7]": {"target": "Activated CDC42 kinase 1 (Homo sapiens, UniProt Q07912)", "sequence (Q07912 whole entry)": "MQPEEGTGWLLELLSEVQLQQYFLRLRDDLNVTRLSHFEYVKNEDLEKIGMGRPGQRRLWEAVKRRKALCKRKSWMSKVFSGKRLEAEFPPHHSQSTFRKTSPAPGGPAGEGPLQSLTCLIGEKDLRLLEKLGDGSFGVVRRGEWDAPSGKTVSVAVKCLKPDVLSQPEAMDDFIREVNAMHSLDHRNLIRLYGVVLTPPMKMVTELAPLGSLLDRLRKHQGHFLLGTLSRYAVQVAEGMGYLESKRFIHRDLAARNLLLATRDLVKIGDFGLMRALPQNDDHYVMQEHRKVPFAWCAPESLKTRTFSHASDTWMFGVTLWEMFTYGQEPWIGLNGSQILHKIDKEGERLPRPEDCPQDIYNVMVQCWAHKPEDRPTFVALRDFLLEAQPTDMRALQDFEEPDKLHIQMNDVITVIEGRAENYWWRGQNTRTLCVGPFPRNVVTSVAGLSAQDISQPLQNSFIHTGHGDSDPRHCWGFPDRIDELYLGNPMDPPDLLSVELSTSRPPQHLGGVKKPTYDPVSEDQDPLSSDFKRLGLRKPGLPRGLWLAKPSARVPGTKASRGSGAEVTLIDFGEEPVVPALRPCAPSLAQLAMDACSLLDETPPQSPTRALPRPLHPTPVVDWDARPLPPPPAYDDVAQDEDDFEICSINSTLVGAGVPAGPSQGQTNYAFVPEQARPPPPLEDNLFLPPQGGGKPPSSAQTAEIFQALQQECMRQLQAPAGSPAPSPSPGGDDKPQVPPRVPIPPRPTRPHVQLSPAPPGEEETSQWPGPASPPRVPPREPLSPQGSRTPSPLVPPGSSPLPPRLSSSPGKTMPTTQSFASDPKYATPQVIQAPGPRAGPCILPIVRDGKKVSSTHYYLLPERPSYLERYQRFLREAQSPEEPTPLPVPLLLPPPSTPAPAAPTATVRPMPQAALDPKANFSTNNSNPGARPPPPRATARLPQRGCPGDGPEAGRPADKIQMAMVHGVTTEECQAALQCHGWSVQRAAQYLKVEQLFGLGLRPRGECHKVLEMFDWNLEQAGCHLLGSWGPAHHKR", "assay": "Navigating the Kinome. Panel member name: ACK1"}, "[8]": {"target": "Vascular endothelial growth factor receptor 2 (Homo sapiens, UniProt P35968)", "sequence (P35968 whole entry)": "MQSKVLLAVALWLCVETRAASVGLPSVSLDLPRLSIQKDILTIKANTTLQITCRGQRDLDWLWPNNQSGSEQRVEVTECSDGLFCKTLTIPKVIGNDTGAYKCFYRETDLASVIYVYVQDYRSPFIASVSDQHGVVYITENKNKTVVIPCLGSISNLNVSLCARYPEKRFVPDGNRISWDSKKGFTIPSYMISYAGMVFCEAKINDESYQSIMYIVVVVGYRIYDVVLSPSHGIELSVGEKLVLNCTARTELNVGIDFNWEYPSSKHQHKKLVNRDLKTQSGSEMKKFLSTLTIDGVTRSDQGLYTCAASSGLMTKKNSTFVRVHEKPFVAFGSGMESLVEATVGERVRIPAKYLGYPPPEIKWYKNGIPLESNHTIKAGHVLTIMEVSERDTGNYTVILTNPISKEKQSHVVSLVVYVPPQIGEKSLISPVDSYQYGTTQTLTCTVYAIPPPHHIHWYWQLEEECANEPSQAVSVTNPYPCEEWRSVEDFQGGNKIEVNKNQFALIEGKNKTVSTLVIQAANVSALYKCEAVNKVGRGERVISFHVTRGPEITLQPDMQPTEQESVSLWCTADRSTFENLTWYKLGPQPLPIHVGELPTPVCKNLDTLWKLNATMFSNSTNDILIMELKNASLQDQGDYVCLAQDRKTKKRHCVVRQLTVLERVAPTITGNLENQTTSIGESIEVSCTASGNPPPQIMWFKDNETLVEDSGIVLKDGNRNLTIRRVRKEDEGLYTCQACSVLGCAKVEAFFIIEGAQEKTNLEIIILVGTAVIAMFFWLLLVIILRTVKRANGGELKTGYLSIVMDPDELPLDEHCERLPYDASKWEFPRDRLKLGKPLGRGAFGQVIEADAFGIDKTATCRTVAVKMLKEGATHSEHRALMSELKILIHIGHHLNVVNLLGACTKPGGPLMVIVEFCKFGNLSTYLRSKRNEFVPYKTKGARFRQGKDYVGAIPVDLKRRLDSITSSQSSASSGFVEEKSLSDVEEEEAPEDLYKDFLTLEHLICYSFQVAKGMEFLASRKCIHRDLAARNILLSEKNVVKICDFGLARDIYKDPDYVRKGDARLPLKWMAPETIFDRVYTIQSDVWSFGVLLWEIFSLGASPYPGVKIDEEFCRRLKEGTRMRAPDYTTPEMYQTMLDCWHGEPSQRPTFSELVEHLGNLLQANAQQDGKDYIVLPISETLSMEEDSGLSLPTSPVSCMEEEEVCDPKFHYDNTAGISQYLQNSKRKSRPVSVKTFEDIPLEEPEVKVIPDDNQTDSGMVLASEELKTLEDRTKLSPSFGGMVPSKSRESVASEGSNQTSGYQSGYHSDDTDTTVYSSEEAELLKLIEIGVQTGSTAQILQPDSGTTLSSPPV"}, "[9]": {"target": "G protein-coupled receptor kinase 5 (Homo sapiens, UniProt P34947)", "assay": "Navigating the Kinome. Panel member name: GPRK5"}, "[10]": {"target": "cAMP-dependent protein kinase catalytic subunit PRKX (Homo sapiens, UniProt P51817)", "sequence (P51817 whole entry)": "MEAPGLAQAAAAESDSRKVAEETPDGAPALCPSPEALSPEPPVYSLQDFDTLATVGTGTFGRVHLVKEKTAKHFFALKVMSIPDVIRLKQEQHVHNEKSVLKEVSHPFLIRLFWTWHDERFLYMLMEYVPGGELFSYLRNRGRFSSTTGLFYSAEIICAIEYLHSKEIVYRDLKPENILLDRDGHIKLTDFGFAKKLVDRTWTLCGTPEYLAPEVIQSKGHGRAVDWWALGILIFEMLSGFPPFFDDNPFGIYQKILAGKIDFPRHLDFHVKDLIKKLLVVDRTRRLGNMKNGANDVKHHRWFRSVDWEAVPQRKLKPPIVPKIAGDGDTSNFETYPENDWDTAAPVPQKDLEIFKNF"}, "[11]": {"target": "Cyclin-dependent kinase 9 (Homo sapiens, UniProt P50750)", "sequence (P50750 whole entry)": "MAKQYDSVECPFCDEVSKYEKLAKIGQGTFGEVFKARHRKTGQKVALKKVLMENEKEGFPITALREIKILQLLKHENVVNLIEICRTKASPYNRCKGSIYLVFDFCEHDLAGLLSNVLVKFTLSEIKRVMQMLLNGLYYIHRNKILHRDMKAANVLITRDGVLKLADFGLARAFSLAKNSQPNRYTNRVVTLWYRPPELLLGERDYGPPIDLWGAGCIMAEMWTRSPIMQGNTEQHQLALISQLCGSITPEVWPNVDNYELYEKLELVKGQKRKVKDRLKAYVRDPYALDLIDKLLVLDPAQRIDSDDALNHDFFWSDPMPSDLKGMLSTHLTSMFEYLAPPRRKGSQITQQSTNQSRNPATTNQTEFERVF"}, "[12]": {"target": "Dual specificity tyrosine-phosphorylation-regulated kinase 1A (Homo sapiens, UniProt Q13627)"}, "[13]": {"target": "Leukocyte tyrosine kinase receptor (Homo sapiens, UniProt P29376)", "sequence (P29376 whole entry)": "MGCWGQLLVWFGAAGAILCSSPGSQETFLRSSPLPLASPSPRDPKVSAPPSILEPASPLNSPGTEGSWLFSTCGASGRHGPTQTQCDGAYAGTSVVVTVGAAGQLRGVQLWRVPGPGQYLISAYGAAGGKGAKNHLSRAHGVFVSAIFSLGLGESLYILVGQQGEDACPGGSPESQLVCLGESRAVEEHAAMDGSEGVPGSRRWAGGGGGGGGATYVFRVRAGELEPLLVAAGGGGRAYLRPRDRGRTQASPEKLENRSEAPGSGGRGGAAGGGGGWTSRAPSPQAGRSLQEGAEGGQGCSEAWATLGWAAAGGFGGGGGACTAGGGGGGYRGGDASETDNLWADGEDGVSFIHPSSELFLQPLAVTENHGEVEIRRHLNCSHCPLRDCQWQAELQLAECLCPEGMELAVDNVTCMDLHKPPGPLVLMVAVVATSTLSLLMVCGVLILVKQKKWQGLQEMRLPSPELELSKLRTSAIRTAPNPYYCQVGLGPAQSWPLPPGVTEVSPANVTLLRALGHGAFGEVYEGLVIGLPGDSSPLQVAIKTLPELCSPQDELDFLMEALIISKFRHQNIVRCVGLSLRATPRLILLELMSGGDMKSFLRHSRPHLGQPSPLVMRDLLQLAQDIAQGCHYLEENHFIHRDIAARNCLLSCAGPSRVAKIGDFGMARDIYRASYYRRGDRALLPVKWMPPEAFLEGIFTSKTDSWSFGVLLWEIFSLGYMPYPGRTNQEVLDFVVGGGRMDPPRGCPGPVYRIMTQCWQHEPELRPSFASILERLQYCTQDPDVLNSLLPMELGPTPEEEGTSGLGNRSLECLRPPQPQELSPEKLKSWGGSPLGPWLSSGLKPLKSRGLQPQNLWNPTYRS", "assay": "Navigating the Kinome. Panel member name: LTK"}},
  "note": "Activity calls are given as the source filed them.",
  "data": [
    {"smiles": "O=C1C=C(O)c2c(O)cc(O)c(O)c2C1=O", "values": [
      {"measurement": "EC50", "setting": "[1]", "value": "> 100 µM (inactive)"}
    ]},
    {"smiles": "CC1(C)C=C2C(=NN(c3ccccc3)C(N)=C2C#N)CO1", "values": [
      {"measurement": "AC50", "setting": "[2]", "value": "> 380 µM (inconclusive)"},
      {"measurement": "IC50", "setting": "[3]", "value": "0.0693 µM (active)"}
    ]},
    {"smiles": "Cc1ccc(-c2cc3nc(Br)cnc3[nH]2)cc1", "values": [
      {"measurement": "Ki", "setting": "[4]", "value": "> 3.98 µM (inactive)"},
      {"measurement": "Ki", "setting": "[5]", "value": "> 5.01 µM (inactive)"},
      {"measurement": "Ki", "setting": "[6]", "value": "> 3.16 µM (inactive)"},
      {"measurement": "Ki", "setting": "[7]", "value": "> 3.98 µM (inactive)"},
      {"measurement": "Ki", "setting": "[8]", "value": "1.26 µM (active)"},
      {"measurement": "Ki", "setting": "[9]", "value": "> 3.98 µM (inactive)"},
      {"measurement": "Ki", "setting": "[10]", "value": "> 3.16 µM (inactive)"},
      {"measurement": "Ki", "setting": "[11]", "value": "> 1.58 µM (inactive)"},
      {"measurement": "Ki", "setting": "[12]", "value": "> 2 µM (inactive)"},
      {"measurement": "Ki", "setting": "[13]", "value": "> 2.51 µM (inactive)"}
    ]}
  ]
}
